# Results from patent publication US20160106719A1, “Transplantation Adjuvant in Cell Therapy Using Neural Progenitor Cells” (SUMITOMO DAINIPPON PHARMA CO., LTD., priority 2013, published 2016).
# Assays:
# [1] = test system: grafts derived from human iPS cells; assay: Transplantation experiment of human iPS cell-derived dopamine neural progenitor cells into striatum of SCID rats (immunohistochemistry of grafts); assay type: in vivo; settings: ZNS at a high dose i.p., four weeks after transplantation
# Protocol: Twelve-week-old SCID rats (produced by Institute of Laboratory Animals, Graduate School of Medicine, Kyoto University) were handled in accordance with the Guidelines for Animal Experiments of Kyoto University. The SCID rats were anesthetized, and donor cells were transplanted by stereotaxic injection into striatums on both sides. Dopamine neural progenitor cells (2.7×10^5 cells on average) prepared from 1039A1 cell, that is, a human iPS cell line, were collected in 2 μl of PBS(-) so as to be used as the donor cells for the transplantation in each tract. To the PBS(-), […] was added at a final concentration of 30 μM. Thereafter, intraperitoneal injection of VPA (150 mg/kg/day or 600 mg/kg/day, which are sometimes designated respectively as a high dose and a low dose), ZNS sodium salt (30 mg/kg/day or 60 mg/kg/day, which are sometimes designated respectively as a high dose and a low dose), or a saline was conducted from two days before transplanting the donor cells until a day of necropsy. Four weeks after the transplantation of the donor cells, the brains of the SCID rats were washed and fixed by intracardially perfusing 4% paraformaldehyde under deep anesthesia. On the day of necropsy, a blood sample was collected from each SCID rat one hour after the final injection of the test compound, and the blood concentration of the drug (test compound) was measured.
# In an in vitro experiment, a cell aggregate treated with any of the above-described test compounds on day 14 after starting the SFEB was fixed with 4% paraformaldehyde. Thereafter, the fixed cell aggregate was frozen and sliced into thin sections each having a thickness of 10 μM by using a microtome for immunocytochemistry. On the other hand, in an in vivo experiment (transplantation experiment), the brain of a SD rat or a SCID rat was taken out after the transplantation experiment to be fixed again with 4% paraformaldehyde for 2 days. […]
# [2] = test system: grafts derived from mouse iPS cells; assay: Transplantation experiment of mouse iPS cell-derived dopamine neural progenitor cells into striatum of SD rats (immunohistochemistry of grafts); assay type: in vivo; settings: four weeks after transplantation
# Protocol: Ten-week-old Sprague-Dawley rats (SD rats, available from Shimizu Laboratory Supplies Co., Ltd.) were handled in accordance with the Guidelines for Animal Experiments of Kyoto University. Each SD rat was anesthetized, and donor cells were transplanted by stereotaxic injection into striatums on both sides. Two cell aggregates (containing 3.1×10^5 cells on average) obtained on day 9 after starting the SFEB were collected in 1 μl of PBS(-) so as to be used as the donor cells for the transplantation in each tract. To the PBS(-), Y-27632 was added at a final concentration of […]. Thereafter, intraperitoneal injection of VPA (150 mg/kg/day), ZNS sodium salt (30 mg/kg/day), E2 (80 μM/kg/day) or a saline was conducted from two days before transplanting the donor cells until a day of necropsy. For immunosuppression, cyclosporin A (CsA, manufactured by Wako Pure Chemical Industries, Ltd.) was administered to all the SD rats at a daily dose of 10 mg/kg. Four weeks after the transplantation of the donor cells, the brains of the SD rats were washed and fixed by intracardially perfusing 4% paraformaldehyde under deep anesthesia. On the day of necropsy, a blood sample was collected from each SD rat one hour after the final injection of the test compound or CsA. Such a sample was sent to SRL, Inc. (Tokyo, Japan) where the blood concentration of the administered drug (test compound) was measured.
# In an in vitro experiment, a cell aggregate treated with any of the above-described test compounds on day 14 after starting the SFEB was fixed with 4% paraformaldehyde. Thereafter, the fixed cell aggregate was frozen and sliced into thin sections each having a thickness of 10 μM by using a microtome for immunocytochemistry. On the other hand, in an in vivo experiment (transplantation experiment), the brain of a SD rat or a SCID rat was taken out after the transplantation experiment to be fixed again with 4% paraformaldehyde for 2 days. Thereafter, the fixed brain of the SD rat or SCID rat was cryopreserved in 30% sucrose for 3 days, frozen, and sliced into thin sections each having a thickness of 40 μM for immunohistochemistry. The frozen sections of the sphere (spherical cell mass) and the brain were subjected to a permeabilization and blocking treatment in PBS(-) for 1 hour at room temperature to be used as samples. The PBS(-) contained 0.3% Triton-X and 2% donkey serum. Thereafter, each of the sections was incubated overnight together with a primary antibody at 4° C. Primary antibodies used in this example are a rabbit anti-tyrosine hydroxylase antibody (dilution rate of 1:400, TH; manufactured by Millipore), a mouse anti-TH antibody (dilution rate of 1:200, manufactured by Millipore), a sheep anti-TH antibody (dilution rate of 1:400, manufactured by Millipore), a mouse anti-Tubβ3 antibody (dilution rate of 1:1000, Tuj1; manufactured by Covance Inc.), a rat anti-NURR1 antibody (dilution rate of 1:1000, KAN Research Institute, Inc., Kobe, Japan), a rabbit anti-Ki67 antibody (dilution rate of 1:1000, manufactured by Novocastra: NCL-Ki67p), a rabbit anti-caspase 3 antibody (dilution rate of 1:500, manufactured by Santa Cruz Biotechnology, Inc.), a rat anti-M2M6 antibody (dilution rate of 1:50, manufactured by Developmental Study Hybridoma Bank), a mouse anti-Nestin antibody (dilution rate of 1:50; manufactured by Millipore), a rabbit anti-Pitx3 antibody (dilution rate of 1:500; manufactured by Chemicon International Inc.), a goat […] antibody (dilution rate of 1:500, Foxa2; manufactured by Santa Cruz Biotechnology, Inc.), a mouse anti-human Nuclei antibody (dilution rate of 1:1000; manufactured by Millipore), and a mouse anti-NeuN antibody (dilution rate of 1:500, manufactured by Chemicon International Inc.). After washing with PBS (0.05% Tween-20) three times, the resultant sample was incubated with an Alexa Fluor-conjugated secondary antibody for 1 hour at room temperature. […]
# [3] = test system: TH+ neurons derived from mouse iPS cells; assay: In vitro survival of TH+ neurons with caspase 3 expression as index of apoptosis; assay type: cell-based; settings: control 18.0±5.9%; no significant difference among four groups
# Protocol: After the cell sorting, in order to induce the reaggregation of the cells, a PSA-NCAM^+ cell group was seeded in a DMEM/F12 medium (manufactured by Wako Pure Chemical Industries, Ltd.) in a 96-well plate at a concentration (cell density) of 20000 cells/well. The DMEM/F12 medium contained 1% N-2 supplement, 200 nM ascorbic acid, 2% B27 supplement (manufactured by Invitrogen), 0.5 mM L-glutamine and 1% P/S. In order to prevent apoptosis, a ROCK inhibitor, Y-27632 (manufactured by Wako Pure Chemical Industries, Ltd.), was used at a concentration of 30 μM during the cell sorting process and the following overnight cultivation. On day 10 after starting the SFEB, any one of valproic acid (VPA) (manufactured by Sigma-Aldrich), zonisamide (ZNS) sodium salt (manufactured by Sumitomo Dainippon Pharma Co., Ltd.), 17β estradiol (E2) (manufactured by Sigma-Aldrich), a glial cell line derived neurotrophic factor (GDNF) (manufactured by R & D Systems) and PBS(-) was added to the medium for 4 days. Each of VPA, ZNS and E2 was used at three different concentrations. Specifically, the concentration of VPA was 0.01 mM, 0.1 mM or 1 mM, the concentration of ZNS was 1 μM, 10 μM or 100 μM, and the concentration of E2 was 1 nM, 10 nM or 100 nM. GDNF was added at a concentration of […] to be used as a positive control. […]
# [4] = test system: re-aggregated PSA-NCAM+ cells (neural progenitor cells derived from mouse iPS cell line 440A3); assay: In vitro differentiation of mouse iPS cell-derived neural progenitor cells into dopaminergic neurons (immunocytochemistry for marker molecules); assay type: cell-based
# Protocol: DMEM contained 1% fetal bovine serum (FBS), 5% knockout serum replacement (KSR; manufactured by Invitrogen), 0.1 mM non-essential amino acids, 1 mM sodium pyruvate, 0.1 mM 2-mercaptoethanol (2-ME; manufactured by Invitrogen), 2000 U/ml leukemia inhibitory factor (manufactured by Invitrogen), and 1.5 μg/ml puromycin. In order to differentiate and induce the iPS cells into neural cells, serum-free floating culture of embryoid bodies-like aggregates (SFEB) was employed. Specifically, aggregates of the 440A3 cells were separated into individual cells by using 0.25% trypsin/1 mM EDTA (ethylenediaminetetraacetic acid), and the resultant cells were seeded in a 96-well low adhesion plate (product name: Lipidure-Coat Plate A-US96, manufactured by NOF Corporation) at a concentration (cell density) of 3000 cells/well. Thereafter, re-aggregation of the 440A3 cells was induced in a differentiation medium containing GMEM (Glasgow Minimum Essential Medium), 5% KSR, 0.1 mM non-essential amino acids, 1 mM sodium pyruvate and 0.1 mM 2-ME, and this day was defined as day 0 (FIG. 1). During this differentiation process, various factors were added to the differentiation medium for inducing midbrain dopaminergic phenotypes as illustrated in FIG. 1. Specifically, from day 3 to day 7 after starting the SFEB, 20 ng/ml of mouse FGF-8b (manufactured by R & D Systems) was added, from day 4 to day 7 after starting the SFEB, 10 ng/ml of recombinant mouse sonic hedgehog (C25I1) N-terminus (manufactured by R & D Systems) was added, and on and after day 7 after starting the SFEB, 1% N-2 supplement (manufactured by Gibco) and 200 nM ascorbic acid were added. The KSR was removed from the differentiation medium on day 7 after starting the SFEB.
# On day 9 after starting the SFEB, the 440A3 cells were washed with phosphate buffered saline (PBS(-)) twice. Thereafter, the 440A3 cells were dissociated into single cells by five-minute incubation performed at 37° C. by using Accumax (manufactured by Innovate Cell Technologies, product name). The cells were collected with a FACS buffer. The FACS buffer was constituted by PBS(-) containing 2% FBS, 20 mM D-glucose and 1% penicillin/streptomycin (P/S, manufactured by Invitrogen). The collected cells were mechanically dissociated into a single cell suspension by a gentle pipetting operation.
# Next, the resultant cells were incubated with a mouse anti-PSA-NCAM antibody (dilution rate of 1:200, manufactured by Millipore) at 4° C. for about 30 minutes. Thereafter, a washing operation using a centrifuge was performed twice, and the resultant cells were further incubated for 30 minutes with a secondary antibody of a donkey anti-mouse IgG (dilution rate of 1:400, manufactured by Invitrogen) labeled with AlexaFluor 594. Dead cells and cell debris were excluded by using 7-aminoactinomycin-D (7-AAD, manufactured by BD Pharmigen) stain. The remaining living cells were suspended again at a final concentration (cell density) of 1×10^7 cells/ml. Cell sorting was conducted by using a FACSAria II cell sorter (manufactured by Becton Dickinson And Company) equipped with a 488 nm argon laser, a 633 nm helium-neon laser, a 100 μm nozzle and a FACSDiva software program. A PSA-NCAM positive rate was determined on the basis of a negative control not using a primary antibody.
# After the cell sorting, in order to induce the reaggregation of the cells, a PSA-NCAM^+ cell group was seeded in a DMEM/F12 medium (manufactured by Wako Pure Chemical Industries, Ltd.) in a 96-well plate at a concentration (cell density) of 20000 cells/well. The DMEM/F12 medium contained 1% N-2 supplement, 200 nM ascorbic acid, 2% B27 supplement (manufactured by Invitrogen), 0.5 mM L-glutamine and 1% P/S. In order to prevent apoptosis, a ROCK inhibitor, Y-27632 (manufactured by Wako Pure Chemical Industries, Ltd.), was used at a concentration of 30 μM during the cell sorting process and the following overnight cultivation. […]
# [5] = ddA or ICI singly added to cells, vs control
smiles,measurement,setting,value
"NS(=O)(=O)Cc1noc2ccccc12 [ZNS, 1,2-benzisoxazole-3-methanesulfonamide]",ratio of TH+ cells that were FOXA2+,[1]; control 76.3±9.7%,91.8±6.2%
same,number of midbrain dopaminergic neurons (TH+ FOXA2+) in a graft,[1]; control 2297±1116 cells,5889±1821 cells
same,number of TH+ cells in a graft,[1]; control 3026±1349 cells,6480±2145 cells
same,ratio of the differentiation of the transplanted NPC into neurons (NeuN+),"[2]; ZNS sodium salt 30 mg/kg/day i.p., vs control",almost equivalent to that of a control
same,ratio of TH+ cells that were FOXA2+,"[2]; VPA 150 mg/kg/day or ZNS 30 mg/kg/day i.p., control 24.7±9.3%",80.4±21.1%
same,number of midbrain dopaminergic neurons (TH+ FOXA2+) in a graft,"[2]; VPA 150 mg/kg/day or ZNS 30 mg/kg/day i.p., control 97±76 cells",835±540 cells
"C[C@]12CC[C@@H]3c4ccc(O)cc4CC[C@H]3[C@@H]1CC[C@@H]2O [E2, 17β estradiol]",ratio of dopaminergic neurons undergoing apoptosis (TH+ neurons expressing caspase 3),[3],low
same,ratio of TH+ cells,"[4]; E2 10 nM, day 10 to 14, control 5.2±1.1%",12.2±2.3%
"C[C@]12CC[C@@H]3c4ccc(O)cc4C[C@@H](CCCCCCCCC[S+]([O-])CCCC(F)(F)C(F)(F)F)[C@H]3[C@@H]1CC[C@@H]2O (stereo partly drawn) [ICI, ICI182780]",ratios of increase in the TH+ cells,[4]; 2 μM ICI added to 10 nM E2,remarkably reduced
same,ratio of TH+ cells,[4]; [5],not changed as compared with that of the control
"C[C@H]1O[C@@H](n2cnc3c(N)ncnc32)C[C@@H]1O [ddA, 2,5-dideoxyadenosine]",ratios of increase in the TH+ cells,[4]; 100 μM ddA added to 0.1 mM VPA,remarkably reduced
same,ratio of TH+ cells,[4]; [5],not changed as compared with that of the control
